Data taken from patent US5601801A, “Radiolabelled angiotensin converting enzyme inhibitors” (Merck Frosst Canada, Inc., priority 1994, dated 1997).
Read-outs that look alike come from different tables or passages of the source.

Legend:
[1] = Imaging of a New Zealand White Rabbit with ^131 I-3; format: in vivo; settings: intravenous ear injection
Source text: It was thought that this small intestine uptake could be due to a difference in mouse ACE or in its distribution as compared to human ACE. It was decided to carry out this imaging experiment in a rabbit since rabbit ACE is believed to be similar to human ACE. It should be noted that it was rabbit ACE which was used in the IC50 assay.
^131 I-3 prepared as described above was taken up in phosphate buffered saline, the solution was filtered through a 0.2μ Millipore filter, and was introduced into the rabbit by intravenous ear injection followed by imaging of the rabbit.

[2] = Biodistribution of ^131 I-3 in CD-1 Mice, normal and blocked with lisinopril; format: in vivo; settings: for tissue uptake at 0.5 h / tissue uptake at 1.5 h / tissue uptake at 3 h / tissue uptake at 6 h: iv, 1 uCi
Experimental: It is well known that there are high ACE concentrations in the lungs, kidneys, pre-optic region of the brain and the blood.^4 Localization of the radioactivity in these organs was expected. […] A blocking study was undertaken to differentiate between specific and non-specific binding.
^131 I-3 was prepared as described above and used in this experiment. The experiment was carried out using male CD-1 mice. The mice were fasted 15 hours prior to injection with 1 μCi of ^131 I-3 by bolus injection into the lateral tail vein. At various times following the dosing, selected mice were sacrificed, exsanguinated and dissected. The desired organs were rinsed, blotted, weighed and counted. For the blocking experiment, mice were treated with 10 μg of lisinopril (by bolus injection into the lateral tail vein) 5 minutes before injection of ^131 I-3.
This blocking experiment was an attempt to differentiate between specific and non-specific binding. […] This is illustrated by the dramatic decrease in radioactivity present in these organs in the blocked biodistribution as compared to the normal biodistribution. […] The anomaly of the first time point has yet to be explained.

[3] = mouse, blood, blocked (lisinopril), read-out: Biodistribution, Blood
[4] = mouse, blood, normal (not blocked), read-out: Biodistribution, Blood
[5] = mouse, contents, blocked (lisinopril), read-out: Biodistribution, Contents
[6] = mouse, contents, normal (not blocked), read-out: Biodistribution, Contents
[7] = mouse, fat, blocked (lisinopril), read-out: Biodistribution, Fat
[8] = mouse, fat, normal (not blocked), read-out: Biodistribution, Fat
[9] = mouse, kidney, blocked (lisinopril), read-out: Biodistribution, Kidney
[10] = mouse, kidney, normal (not blocked), read-out: Biodistribution, Kidney
[11] = mouse, large intestine, blocked (lisinopril), read-out: Biodistribution, lg. Intest.
[12] = mouse, large intestine, normal (not blocked), read-out: Biodistribution, lg. Intest.
[13] = mouse, liver, blocked (lisinopril), read-out: Biodistribution, Liver
[14] = mouse, liver, normal (not blocked), read-out: Biodistribution, Liver
[15] = mouse, lung, blocked (lisinopril), read-out: Biodistribution, Lung
[16] = mouse, lung, normal (not blocked), read-out: Biodistribution, Lung
[17] = mouse, muscle, blocked (lisinopril), read-out: Biodistribution, Muscle
[18] = mouse, muscle, normal (not blocked), read-out: Biodistribution, Muscle
[19] = mouse, small intestine, blocked (lisinopril), read-out: Biodistribution, Sm. Intest.
[20] = mouse, small intestine, normal (not blocked), read-out: Biodistribution, Sm. Intest.
[21] = mouse, stomach, blocked (lisinopril), read-out: Biodistribution, Stomach
[22] = mouse, stomach, normal (not blocked), read-out: Biodistribution, Stomach

Compound: O=C(NCCCC[C@H](N[C@@H](CCc1ccccc1)C(=O)O)C(=O)N1CCC[C@H]1C(=O)O)c1cccc([131I])c1 [^131 I-3, Lisinopril N^ε -radioiodobezamide]
- organs imaged [1]: clearly show the lungs and kidneys at early time points, as well as in the bladder at later time points
- kidney uptake, blocked vs normal ([2]; 0.5 hours, pre-injection with lisinopril): slight increase (or no change)
- nature of uptake in kidney, lung and small intestine ([2]; blocking experiment): due to specific binding
- uptake in kidneys and lungs ([2]; early time points): uptake in the kidneys and lungs at early time points
- tissue uptake at 0.5 h ([2]; mouse, blood, 0.5 hours, blocked (lisinopril), read-out: Biodistribution, Blood): 6 %ID/g
- tissue uptake at 0.5 h ([2]; mouse, blood, 0.5 hours, normal (not blocked), read-out: Biodistribution, Blood): 5.9 %ID/g
- tissue uptake at 1.5 h [2, 3]: 3.2 %ID/g
- tissue uptake at 1.5 h [2, 4]: 3.2 %ID/g
- tissue uptake at 3 h [2, 3]: 1.3 %ID/g
- tissue uptake at 3 h [2, 4]: 3.1 %ID/g
- tissue uptake at 6 h [2, 3]: 0.9 %ID/g
- tissue uptake at 6 h [2, 4]: 1 %ID/g
- tissue uptake at 0.5 h ([2]; mouse, contents, 0.5 hours, blocked (lisinopril), read-out: Biodistribution, Contents): 17.9 %ID/g
- tissue uptake at 0.5 h ([2]; mouse, contents, 0.5 hours, normal (not blocked), read-out: Biodistribution, Contents): 21.4 %ID/g
- tissue uptake at 1.5 h [2, 5]: 28.5 %ID/g
- tissue uptake at 1.5 h [2, 6]: 22.1 %ID/g
- tissue uptake at 3 h [2, 5]: 15 %ID/g
- tissue uptake at 3 h [2, 6]: 21.4 %ID/g
- tissue uptake at 6 h [2, 5]: 48.9 %ID/g
- tissue uptake at 6 h [2, 6]: 65.9 %ID/g
- tissue uptake at 0.5 h ([2]; mouse, fat, 0.5 hours, blocked (lisinopril), read-out: Biodistribution, Fat): 0.6 %ID/g
- tissue uptake at 0.5 h ([2]; mouse, fat, 0.5 hours, normal (not blocked), read-out: Biodistribution, Fat): 0.7 %ID/g
- tissue uptake at 1.5 h [2, 7]: 0.5 %ID/g
- tissue uptake at 1.5 h [2, 8]: 0.8 %ID/g
- tissue uptake at 3 h [2, 7]: 0.2 %ID/g
- tissue uptake at 3 h [2, 8]: 0.4 %ID/g
- tissue uptake at 6 h [2, 7]: 0.1 %ID/g
- tissue uptake at 6 h [2, 8]: 0.2 %ID/g
- clearance from small intestine ([2]; mouse, in vivo): quite slow clearance
- clearance from the lungs ([2]; mouse, in vivo): rapid clearance from the lungs
- uptake in the small intestine ([2]; mouse, in vivo): High uptake in the small intestine
- tissue uptake at 0.5 h ([2]; mouse, kidney, 0.5 hours, blocked (lisinopril), read-out: Biodistribution, Kidney): 9.8 %ID/g
- tissue uptake at 0.5 h ([2]; mouse, kidney, 0.5 hours, normal (not blocked), read-out: Biodistribution, Kidney): 7.1 %ID/g
- tissue uptake at 1.5 h [2, 9]: 2.4 %ID/g
- tissue uptake at 1.5 h [2, 10]: 7.1 %ID/g
- tissue uptake at 3 h [2, 9]: 1.4 %ID/g
- tissue uptake at 3 h [2, 10]: 6.9 %ID/g
- tissue uptake at 6 h [2, 9]: 0.5 %ID/g
- tissue uptake at 6 h [2, 10]: 9.6 %ID/g
- tissue uptake at 0.5 h ([2]; mouse, large intestine, 0.5 hours, blocked (lisinopril), read-out: Biodistribution, lg. Intest.): 1.1 %ID/g
- tissue uptake at 0.5 h ([2]; mouse, large intestine, 0.5 hours, normal (not blocked), read-out: Biodistribution, lg. Intest.): 1.5 %ID/g
- tissue uptake at 1.5 h [2, 11]: 1.4 %ID/g
- tissue uptake at 1.5 h [2, 12]: 1.1 %ID/g
- tissue uptake at 3 h [2, 11]: 13.4 %ID/g
- tissue uptake at 3 h [2, 12]: 2.6 %ID/g
- tissue uptake at 6 h [2, 11]: 14.6 %ID/g
- tissue uptake at 6 h [2, 12]: 18.6 %ID/g
- tissue uptake at 0.5 h ([2]; mouse, liver, 0.5 hours, blocked (lisinopril), read-out: Biodistribution, Liver): 7.6 %ID/g
- tissue uptake at 0.5 h ([2]; mouse, liver, 0.5 hours, normal (not blocked), read-out: Biodistribution, Liver): 7.2 %ID/g
- tissue uptake at 1.5 h [2, 13]: 1.4 %ID/g
- tissue uptake at 1.5 h [2, 14]: 4.9 %ID/g
- tissue uptake at 3 h [2, 13]: 1.9 %ID/g
- tissue uptake at 3 h [2, 14]: 3.8 %ID/g
- tissue uptake at 6 h [2, 13]: 0.3 %ID/g
- tissue uptake at 6 h [2, 14]: 0.8 %ID/g
- tissue uptake at 0.5 h ([2]; mouse, lung, 0.5 hours, blocked (lisinopril), read-out: Biodistribution, Lung): 1 %ID/g
- tissue uptake at 0.5 h ([2]; mouse, lung, 0.5 hours, normal (not blocked), read-out: Biodistribution, Lung): 4.8 %ID/g
- tissue uptake at 1.5 h [2, 15]: 0.6 %ID/g
- tissue uptake at 1.5 h [2, 16]: 1.8 %ID/g
- tissue uptake at 3 h [2, 15]: 0.5 %ID/g
- tissue uptake at 3 h [2, 16]: 1.7 %ID/g
- tissue uptake at 6 h [2, 15]: 0.3 %ID/g
- tissue uptake at 6 h [2, 16]: 0.5 %ID/g
- tissue uptake at 0.5 h ([2]; mouse, muscle, 0.5 hours, blocked (lisinopril), read-out: Biodistribution, Muscle): 1.1 %ID/g
- tissue uptake at 0.5 h ([2]; mouse, muscle, 0.5 hours, normal (not blocked), read-out: Biodistribution, Muscle): 1.1 %ID/g
- tissue uptake at 1.5 h [2, 17]: 0.4 %ID/g
- tissue uptake at 1.5 h [2, 18]: 0.8 %ID/g
- tissue uptake at 3 h [2, 17]: 0.3 %ID/g
- tissue uptake at 3 h [2, 18]: 0.6 %ID/g
- tissue uptake at 6 h [2, 17]: 0.2 %ID/g
- tissue uptake at 6 h [2, 18]: 0.3 %ID/g
- tissue uptake at 0.5 h ([2]; mouse, small intestine, 0.5 hours, blocked (lisinopril), read-out: Biodistribution, Sm. Intest.): 19.8 %ID/g
- tissue uptake at 0.5 h ([2]; mouse, small intestine, 0.5 hours, normal (not blocked), read-out: Biodistribution, Sm. Intest.): 31.9 %ID/g
- tissue uptake at 1.5 h [2, 19]: 21.7 %ID/g
- tissue uptake at 1.5 h [2, 20]: 27 %ID/g
- tissue uptake at 3 h [2, 19]: 14.2 %ID/g
- tissue uptake at 3 h [2, 20]: 27 %ID/g
- tissue uptake at 6 h [2, 19]: 1.2 %ID/g
- tissue uptake at 6 h [2, 20]: 20.1 %ID/g
- tissue uptake at 0.5 h ([2]; mouse, stomach, 0.5 hours, blocked (lisinopril), read-out: Biodistribution, Stomach): 24.2 %ID/g
- tissue uptake at 0.5 h ([2]; mouse, stomach, 0.5 hours, normal (not blocked), read-out: Biodistribution, Stomach): 25.1 %ID/g
- tissue uptake at 1.5 h [2, 21]: 13.3 %ID/g
- tissue uptake at 1.5 h [2, 22]: 28.7 %ID/g
- tissue uptake at 3 h [2, 21]: 12.8 %ID/g
- tissue uptake at 3 h [2, 22]: 14.2 %ID/g
- tissue uptake at 6 h [2, 21]: 4.2 %ID/g
- tissue uptake at 6 h [2, 22]: 5.1 %ID/g
- blocking of uptake in kidney and small intestine ([2]; pre-injection with lisinopril): effectively blocked at all time points
- uptake in all other organs, blocked vs normal ([2]; pre-injection with lisinopril): no difference in uptake between the normal and blocked biodistributions
